This is an account of results in patent publication US7772198B2, “CFTR channel modulators” (Centre National de la Recherche Scientifique, priority 2003, dated 2010).

Each structure is given as a SMILES string. Like-named read-outs stand apart in the source and are kept apart here.

Series [1] can be described thus: pKa evaluation in aqueous solution. The class given is physicochemical. As to the method: As an example, the pKa of this compound was evaluated at 4. This means that in an aqueous solution with a pH of 7, this compound is mainly in zwitterionic form, as in the case of highly diluted solutions such as those used for biological tests.
For series [2], the target named is wild-type CFTR protein (Calu-3 cells) (Homo sapiens, UniProt P13569). The experiment in a line: iodide efflux, Calu-3 human lung cells naturally expressing wild-type CFTR.
Series [3] deals with T1, wild-type CFTR receptor (CHO-WT cells) (Homo sapiens, UniProt P13569).
T1 construct: expressed in transfected cells; host or cells: CHO (Chinese Hamster Ovary) cells, stably transfected
The experiment in a line: 125I iodide efflux, CHO cells overexpressing wild-type CFTR (CHO-WT). The following applies: for IC50: 5 μM Fsk; for Effect: + activator, − inhibitor, compound 1 μM, 100% = activation with 1 μM forskolin; for EC50: activators, 1 μM forskolin; for effect on wild-type receptors: summary of Table II. The class given is cell-based.

Series [4] deals with T2, G551D-CFTR (CHO-G551D cells) (Homo sapiens, UniProt P13569, G551D).
T2 construct: expressed in transfected cells; host or cells: CHO (Chinese Hamster Ovary) cells, stably transfected
The experiment in a line: 125I iodide efflux, CHO cells expressing G551D mutated CFTR (CHO-G551D). The format is cell-based. Particulars: for IC50: 10 μM Fsk + 30 μM genistein; for effect on G551D mutated receptors: summary of Table II.

Series [5] deals with mutated F508-CFTR (CF15 cells) (Homo sapiens, UniProt P13569, DEL508-508). The experiment in a line: iodide efflux, CF15 human nasal epithelial cells expressing mutated F508-CFTR. Particulars: results not shown.
Series [6] deals with diarrhoea caused by the cholera toxin. Particulars: mouse, in vivo; cited from earlier work.
Another series concerns the target CFTR channel (Homo sapiens, UniProt P13569). Particulars: read-out: IC50, concentration to inhibit 50% of the activity of the CFTR channel; cited from earlier work.
The test system of the next series is mice. The following applies: at 7 days, 10 mg/kg injection; cited from earlier work.
[7] abbreviates: 1 μM compound added to 1 μM Fsk.
[8] abbreviates: 1 μM compound added to 10 μM Fsk + 30 μM genistein.
Setting [9] is: 1 μM compound added to 5 μM Fsk.

T2 sequence (P13569 whole entry G551D): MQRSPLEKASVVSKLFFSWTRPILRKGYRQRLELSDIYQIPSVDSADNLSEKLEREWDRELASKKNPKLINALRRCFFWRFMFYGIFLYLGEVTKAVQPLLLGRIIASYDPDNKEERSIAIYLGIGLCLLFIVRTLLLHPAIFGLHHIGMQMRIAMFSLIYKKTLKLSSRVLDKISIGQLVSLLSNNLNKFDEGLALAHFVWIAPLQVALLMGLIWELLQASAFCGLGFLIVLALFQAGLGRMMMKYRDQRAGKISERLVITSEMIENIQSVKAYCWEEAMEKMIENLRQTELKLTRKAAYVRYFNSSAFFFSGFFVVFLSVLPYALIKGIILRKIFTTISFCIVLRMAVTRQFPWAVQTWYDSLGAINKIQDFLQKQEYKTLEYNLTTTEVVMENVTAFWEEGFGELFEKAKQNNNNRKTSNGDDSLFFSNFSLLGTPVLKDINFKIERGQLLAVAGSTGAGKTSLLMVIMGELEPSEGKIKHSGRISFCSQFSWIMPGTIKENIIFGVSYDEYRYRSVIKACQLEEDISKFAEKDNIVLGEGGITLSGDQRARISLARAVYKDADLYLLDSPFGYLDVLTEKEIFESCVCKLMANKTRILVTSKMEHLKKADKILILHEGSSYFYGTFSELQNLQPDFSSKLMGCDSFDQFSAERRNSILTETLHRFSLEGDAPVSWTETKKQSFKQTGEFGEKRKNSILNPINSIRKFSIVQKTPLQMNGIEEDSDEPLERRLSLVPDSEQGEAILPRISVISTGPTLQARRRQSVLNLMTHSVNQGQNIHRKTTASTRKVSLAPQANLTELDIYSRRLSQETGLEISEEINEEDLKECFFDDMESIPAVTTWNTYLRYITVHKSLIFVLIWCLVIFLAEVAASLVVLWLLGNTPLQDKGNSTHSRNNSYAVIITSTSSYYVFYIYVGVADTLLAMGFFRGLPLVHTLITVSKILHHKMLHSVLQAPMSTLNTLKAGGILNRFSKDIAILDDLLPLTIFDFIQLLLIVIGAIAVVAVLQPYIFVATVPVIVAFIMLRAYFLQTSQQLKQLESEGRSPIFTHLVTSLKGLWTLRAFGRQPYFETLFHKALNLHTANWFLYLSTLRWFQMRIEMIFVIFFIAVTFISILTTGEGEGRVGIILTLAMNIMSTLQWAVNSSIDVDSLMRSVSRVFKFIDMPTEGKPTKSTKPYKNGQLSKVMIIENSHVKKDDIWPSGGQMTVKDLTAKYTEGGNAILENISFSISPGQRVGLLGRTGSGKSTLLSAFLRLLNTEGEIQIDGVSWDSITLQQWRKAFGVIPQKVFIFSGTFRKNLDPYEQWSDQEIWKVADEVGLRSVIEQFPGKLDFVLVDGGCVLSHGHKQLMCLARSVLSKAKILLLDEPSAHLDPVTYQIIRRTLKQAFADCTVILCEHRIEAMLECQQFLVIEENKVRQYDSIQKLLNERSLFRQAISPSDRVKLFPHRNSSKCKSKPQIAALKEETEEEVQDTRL
Sequence of wild-type CFTR protein (Calu-3 cells) (P13569 whole entry): as the sequence (P13569 whole entry G551D) above, with D551G counted along it
T1 sequence (P13569 whole entry): as the sequence (P13569 whole entry G551D) above, with D551G counted along it
Sequence of CFTR channel (P13569 whole entry): as the sequence (P13569 whole entry G551D) above, with D551G counted along it
Sequence of mutated F508-CFTR (CF15 cells) (P13569 with tags, fused parts or gaps DEL508-508): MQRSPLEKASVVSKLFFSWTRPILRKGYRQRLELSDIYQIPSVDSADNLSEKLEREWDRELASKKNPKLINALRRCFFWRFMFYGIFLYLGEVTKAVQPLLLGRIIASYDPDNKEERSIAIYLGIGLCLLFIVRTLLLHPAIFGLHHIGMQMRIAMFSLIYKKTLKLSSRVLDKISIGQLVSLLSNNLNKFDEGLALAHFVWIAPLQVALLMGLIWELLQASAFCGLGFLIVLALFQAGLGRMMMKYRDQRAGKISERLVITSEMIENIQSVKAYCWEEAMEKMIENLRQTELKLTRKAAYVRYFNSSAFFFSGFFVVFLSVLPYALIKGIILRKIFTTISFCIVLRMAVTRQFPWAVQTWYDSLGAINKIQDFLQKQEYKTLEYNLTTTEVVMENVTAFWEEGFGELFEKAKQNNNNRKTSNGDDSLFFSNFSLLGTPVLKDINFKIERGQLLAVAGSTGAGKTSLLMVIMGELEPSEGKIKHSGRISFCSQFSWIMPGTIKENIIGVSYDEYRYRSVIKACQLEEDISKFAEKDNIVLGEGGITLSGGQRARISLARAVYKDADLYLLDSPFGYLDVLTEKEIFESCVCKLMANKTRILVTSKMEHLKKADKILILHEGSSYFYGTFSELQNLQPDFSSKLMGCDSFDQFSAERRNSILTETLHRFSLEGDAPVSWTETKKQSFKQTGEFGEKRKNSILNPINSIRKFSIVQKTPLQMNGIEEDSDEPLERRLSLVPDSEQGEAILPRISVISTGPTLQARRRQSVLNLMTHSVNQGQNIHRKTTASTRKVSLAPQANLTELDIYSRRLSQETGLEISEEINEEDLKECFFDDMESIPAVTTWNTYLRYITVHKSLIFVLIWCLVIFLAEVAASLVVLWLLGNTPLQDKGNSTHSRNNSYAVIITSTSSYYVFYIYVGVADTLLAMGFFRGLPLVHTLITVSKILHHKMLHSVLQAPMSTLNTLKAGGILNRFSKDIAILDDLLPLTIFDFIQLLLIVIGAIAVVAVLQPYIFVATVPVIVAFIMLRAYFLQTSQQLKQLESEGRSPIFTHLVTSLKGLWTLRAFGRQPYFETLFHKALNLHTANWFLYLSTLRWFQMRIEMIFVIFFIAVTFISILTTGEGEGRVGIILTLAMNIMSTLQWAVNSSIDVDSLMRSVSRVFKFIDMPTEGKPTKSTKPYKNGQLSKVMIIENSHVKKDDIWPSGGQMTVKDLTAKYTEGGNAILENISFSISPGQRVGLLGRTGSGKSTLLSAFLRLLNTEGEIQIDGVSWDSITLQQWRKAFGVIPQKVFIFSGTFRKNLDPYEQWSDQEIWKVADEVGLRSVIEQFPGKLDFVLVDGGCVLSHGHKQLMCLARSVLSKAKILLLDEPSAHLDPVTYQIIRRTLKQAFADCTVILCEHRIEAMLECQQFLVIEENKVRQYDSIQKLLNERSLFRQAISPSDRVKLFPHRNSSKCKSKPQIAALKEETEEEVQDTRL

Turning to `CC1(C(=O)O)N=C2C=CC=CN2C(C)(O)C1O` (centres unmarked), the pKa in series [1] (aqueous solution, aqueous solution at 25° C., read-out: pKa, carboxylic acid function) is roughly 2; in series [1] (aqueous solution, aqueous solution at 25° C., read-out: pKa, imine function), roughly 10.
Take `CC1(C(=O)O)N=C2C(O)=CC=CN2C(C)(O)C1O` (mixture of isomers) [Compound 3, 2-amino-3-hydroxypyridine Adducts]: the IC50 is 11000 nM in series [2], 4000 nM in series [3] and 36000 nM in series [4].
Regarding `CCCn1cnc2c1N=CN1C2=NC(C)(C(=O)O)C(O)C1(C)O` (mixture of isomers) [Compound 9, 9-propyladenine Adducts], the “activation of ΔF508 mutated receptor” value in series [5] was “can activate”. Further, the “effect on activation of wild-type CFTR (CHO-WT)” value (“effect on activation … (CHO-WT)” for short) in series [3] (setting [7]) is reported as “activation”. Also, in series [3] (setting [8]), the “effect on activation … (CHO-WT)” value was “activation”. In series [3], the Effect entry is “+ (In case of a significant increase, the compound was listed as an activator)”; the EC50 came to 2000 nM; the “effect on wild-type receptors” value was “activator effect”. The “effect on activation of mutated CFTR (CHO-G551D)” value (“effect … (CHO-G551D)” below) in series [4] (setting [7]) is given as “no effect”. Moreover, the “effect … (CHO-G551D)” value in series [4] (setting [8]) is reported as “activation”. In series [4], the “effect on G551D mutated receptors” value is reported as “unable to activate”.
Take `C=CCn1cnc2c1N=CN1C2=NC(C)(C(=O)O)C(O)C1(C)O` (mixture of isomers) [Compound 10, 9-allyladenine Adducts]: in series [3], the Effect result is given as “+ (In case of a significant increase, the compound was listed as an activator)” and the EC50 was determined as 7500 nM.
Compound `CCC1(C(=O)O)N=C2C=CC=CN2C(O)(CC)C1O` (mixture of isomers) [Compound 11] registered an IC50 in series [3] of 18000 nM.
Take `CCCn1cnc2c1N=CN1C2=N[C@](C)(C(=O)O)[C@@H](O)[C@@]1(C)O` (racemic) [Compound 9a]: the EC50 in series [2] and in series [3] was 2000 nM throughout. For the same compound, in series [3], the Effect entry is “+ (In case of a significant increase, the compound was listed as an activator)”.
`CCCn1cnc2c1N=CN1C2=N[C@](C)(C(=O)O)[C@H](O)[C@@]1(C)O` (racemic) [Compound 9b]: in series [3], the Effect entry is reported as “+ (In case of a significant increase, the compound was listed as an activator)” and a half-maximal response (EC50) required 3000 nM.
For the compound `C[C@]1(C(=O)O)N=C2c3nc[nH]c3N=CN2[C@](C)(O)[C@H]1O` (single isomer, unassigned) [Compound 5a], in series [3], the IC50 turned out to be 10000 nM.
In the case of `C[C@]1(C(=O)O)N=C2c3nc[nH]c3N=CN2[C@](C)(O)[C@H]1O` (single isomer, unassigned) [Compound 5b], in series [3], the IC50 is 3000 nM.
`CC1(C(=O)O)N=C2c3ncn([C@H]4CC(O)[C@@H](CO)O4)c3N=CN2C(C)(O)C1O` (stereo in doubt) [Compound 1, 2′-deoxyadenosine Adducts]: the IC50 came to 0.093 nM in series [2], 0.071 nM in series [3] and 43 nM in series [4]. In addition, the “effect on activation … (CHO-WT)” value in series [3] (setting [7]), in series [3] (setting [9]) and in series [3] (setting [8]) was “inhibition” in each case. Also, the “effect on wild-type receptors” value in series [3] is “effectively antagonises the action of the forskolin and genistein activators”. For the same compound, the “effect … (CHO-G551D)” value in series [4] (setting [7]) is on record as “no effect”; in series [4] (setting [9]), “no effect”; in series [4] (setting [8]), “inhibition”. The “effect on G551D mutated receptors” value in series [4] is “effectively antagonises the action of the forskolin and genistein activators”.
In series [3], `Cc1nc2cccc[n+]2c(C)c1O` [6 (chlorhydrate)] yielded an IC50 of 7 nM.
In series [3], `C[N+](C)(C)CC(=O)O` [Betaine, reference compound] gave an IC50 of 96000 nM.
Regarding `O=C(O)c1ccc(/C=C2\SC(=S)N(c3cccc(C(F)(F)F)c3)C2=O)cc1` [CFTRinh-172], the “reduction of diarrhoea caused by the cholera toxin” value in series [6] is “more than 90%”. Further, the IC50 at CFTR channel is 200 nM. Moreover, the toxicity in mice entry in the series on mice is on record as “absence of toxicity”.
In the case of `CCCN1C=CC2=NC(C)(C(=O)O)C(O)C(C)(O)N2C1=O` (centres unmarked) [Compound 2, 1-propylcytosine Adducts], the IC50 in series [2] was determined as 2 nM; in series [3], 2 nM; in series [4], 154 nM.
For the compound `CCCN1C=CC2=N[C@](C)(C(=O)O)[C@@H](O)[C@@](C)(O)N2C1=O` [Compound 2a], in series [3], the IC50 was determined as 2 nM.
As to `CCCN1C=CC2=N[C@](C)(C(=O)O)[C@H](O)[C@@](C)(O)N2C1=O` [Compound 2b], the IC50 in series [3] worked out at 1.5 nM.
As to `CC1(C(=O)O)N=C2c3nc[nH]c3N=CN2C(C)(O)C1O` (centres unmarked) [Compound 5, Adenine Adducts], the IC50 in series [2] was found to be 12000 nM; in series [3], 6000 nM; in series [4], 110000 nM.
Consider `Cc1nc2cccc[n+]2c(C)c1[O-]` [Compound 6, 2-aminopyridine Derivative], for which the IC50 in series [2] stood at 5 nM; in series [3] it was 5 nM; in series [4], 90 nM. In series [1] (read-out: pKa), the pKa stood at 4.
Turning to `C[n+]1cn([C@@H]2O[C@H](CO)[C@@H](O)[C@H]2O)c2nc(N)nc([O-])c21` [Compound 8, 7-methylguanosine], the IC50 was 11000 nM in series [2], 3500 nM in series [3] and 15000 nM in series [4].
For `O=C(O)c1nn(Cc2ccc(Cl)cc2Cl)c2ccccc12` [lonidamine], the IC50 on CFTR channel was 58000 nM.
